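Protocol summary: plate cells (96-well), add compound at 5 concentrations, incubate 48 h, interpolate endpoints linearly. GI50 is the concentration that inhibits growth by half.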 The source made the active and inactive calls. Cut-off read from the data, not from the text of the source: active = GI50 up to about 1.1 µM and inactive = higher.

Assay in all cases: NCI-60 cell line screen, 48 h
The subject of experiment [1] is NCI-H460.
The subject of experiment [2] is HCT-15.
Experiment [3] has as its system T47D.
Experiment [4] relates to IGROV-1.
The test system of experiment [5] is EKVX.
Experiment [6] concerns HOP-62.
Experiment [7] deals with OVCAR-4.
Experiment [8] concerns SF-295.
Experiment [9] relates to K562.
The subject of experiment [10] is 786-0.
Experiment [11] relates to CCRF-CEM.
In experiment [12] the test system is SR.
The test system of experiment [13] is SNB-75.
In experiment [14] the test system is MDA-MB-435.
Experiment [15] relates to HCT-116.
Experiment [16] concerns NCI-H522.
In experiment [17] the test system is CAKI-1.
In experiment [18] the test system is OVCAR-5.
Experiment [19] relates to HT-29.
Experiment [20] concerns U-251.

With `[O-][n+]1onc2c1/C(=N/O)CCC2`, the GI50 in experiment [1] was > 100 µM (inactive); in experiment [2], above 100 µM; in [3] it was > 100 µM (inactive); in [4], > 100 µM (inactive); in [5] it was > 100 µM (inactive); in experiment [6] it was > 100 µM (inactive). Besides, the GI50 in [7], in experiment [8], in experiment [9], in experiment [10], in [11] and in experiment [12] was > 100 µM (inactive) in each case. The GI50 in experiment [13], in experiment [14], in experiment [15], in experiment [16], in experiment [17] and in experiment [18] was > 100 µM (inactive) throughout. For the same compound, the GI50 in [19] is > 100 µM (inactive).

Consider `O=C(CSCC(=O)N/N=C\c1ccc(O)c(O)c1O)N/N=C\c1ccc(O)c(O)c1O`, for which the GI50 is 23.3 µM (inactive) in experiment [1]; 13.4 µM in [2]; 18.7 µM (inactive) in experiment [3]; 19.8 µM (inactive) in experiment [4]; 21.3 µM (inactive) in experiment [5]; 2.48 µM (inactive) in experiment [7]. Also, the GI50 in experiment [8] is 2.24 µM (inactive); in experiment [20], 4.84 µM (inactive); in experiment [10], 2.01 µM (inactive); in experiment [11], 1.73 µM (inactive); in experiment [12], 2.33 µM (inactive); in experiment [13], 2.11 µM (inactive). For the same compound, the GI50 in experiment [14] is 1.97 µM (inactive); in experiment [15], 3.37 µM (inactive); in experiment [16] it was 19.1 µM (inactive); in experiment [17], 16.7 µM (inactive); in experiment [19], 11.6 µM (inactive).

On to `CCC/N=C/c1c(O)c(O)c(C(C)C)c2cc(C)c(-c3c(C)cc4c(C(C)C)c(O)c(O)c(/C=N/CCC)c4c3O)c(O)c12`, for which the GI50 in experiment [1] is 4.38 µM (inactive); in experiment [2] it was 7.46 µM; in [3], 7.74 µM (inactive); in experiment [4], 11.1 µM (inactive); in experiment [5], 7.19 µM (inactive); in [6], 10.2 µM (inactive). Moreover, the GI50 is 4.38 µM (inactive) in [7]; 3.77 µM (inactive) in [8]; 2.07 µM (inactive) in experiment [20]; 2.96 µM (inactive) in experiment [9]; 10.2 µM (inactive) in [10]; 1.54 µM (inactive) in [11]. The GI50 in experiment [12] was 3.46 µM (inactive); in [13] it was 8.79 µM (inactive); in experiment [14] it was 10.7 µM (inactive); in experiment [15] it was 3.44 µM (inactive); in experiment [16] it was 1.53 µM (inactive); in experiment [17] it was 25.8 µM (inactive). Further, the GI50 in [18] was 10 µM (inactive); in [19], 4.04 µM (inactive).

As for `O=C1CS(=O)(=O)C(c2cccc(Oc3ccccc3)c2)N1C1CC1` (centres undefined), the GI50 in [1] is 43.4 µM (inactive); in experiment [2] it was 30.3 µM; in [3] it was 35 µM (inactive); in [5], 29 µM (inactive); in [7], 29.2 µM (inactive); in experiment [8] it was 36.6 µM (inactive). Also, the GI50 in experiment [20] was 32.5 µM (inactive); in [9], 50.9 µM (inactive); in [10], 37.2 µM (inactive); in experiment [11], 60.1 µM (inactive); in experiment [12], 31.6 µM (inactive); in [13] it was 24.8 µM (inactive). Further, the GI50 in experiment [14] is 26.2 µM (inactive); in experiment [15] it was 25.5 µM (inactive); in experiment [16], 38.7 µM (inactive); in [17], 0.045 µM (active); in experiment [18] it was 62.2 µM (inactive); in experiment [19], 32.7 µM (inactive).

In the case of `O=C(C=P(c1ccccc1)(c1ccccc1)c1ccccc1)C12CC3CC(CC(C3)C1)C2`, the GI50 in [1] was 16.4 µM (inactive); in [2] it was 13.4 µM; in experiment [3], 16.1 µM (inactive); in [4], 16 µM (inactive); in experiment [5], 15.6 µM (inactive); in [6] it was 17.2 µM (inactive). For the same compound, the GI50 in experiment [7] is 18.7 µM (inactive); in experiment [20], 17.7 µM (inactive); in experiment [9], < 0.01 µM (active); in experiment [10], 17.3 µM (inactive); in experiment [11], 14.4 µM (inactive); in experiment [12], 55 µM (inactive). Also, the GI50 is 16.9 µM (inactive) in [13]; 12.9 µM (inactive) in experiment [14]; 13.2 µM (inactive) in experiment [15]; 6.55 µM (inactive) in experiment [16]; 16.1 µM (inactive) in experiment [17]; 17.1 µM (inactive) in experiment [18]. For the same compound, the GI50 in experiment [19] is 11.2 µM (inactive).

With `CN(C)/C=N/S(=O)(=O)c1nn2c(C=O)c(-c3ccc(Cl)cc3)nc2s1`, the GI50 was 6.28 µM (inactive) in [1]; 1.61 µM in [2]; 1.67 µM (inactive) in [3]; 3.28 µM (inactive) in experiment [5]; 13.2 µM (inactive) in experiment [6]; 1.81 µM (inactive) in experiment [7]. The GI50 is 14.4 µM (inactive) in experiment [8]; 2.95 µM (inactive) in [20]; 0.403 µM (active) in experiment [9]; 1.25 µM (inactive) in [10]; 0.228 µM (active) in experiment [11]; 0.767 µM (active) in experiment [12]. The GI50 in [13] was 11.2 µM (inactive); in experiment [14], 2.16 µM (inactive); in experiment [15] it was 0.693 µM (active); in experiment [16], 0.557 µM (active); in experiment [17] it was 0.995 µM (active); in experiment [18], 1.75 µM (inactive). Besides, in experiment [19], the GI50 is 0.196 µM (active).

Take `CCCCCCCCCCCC(=O)Oc1c(Cl)cc(Cl)c(OC(=O)C(=O)Oc2c(Cl)cc(Cl)c(OC(=O)CCCCCCCCCCC)c2Cl)c1Cl`: the GI50 in experiment [1], in experiment [3], in experiment [4], in experiment [5], in experiment [6] and in [7] was > 100 µM (inactive) in each case. The GI50 in [8], in experiment [20], in experiment [10], in experiment [11], in [12] and in [13] was > 100 µM (inactive) throughout. Besides, the GI50 in experiment [14], in experiment [15], in [16], in [17], in experiment [18] and in [19] was > 100 µM (inactive) each time.

For `CCOC(=O)C1=NN(c2ccc(C)cc2)C2(c3ccccc3)C=C(c3ccccc3)N(C)CCN12` (centres undefined), the GI50 in [2] was above 100 µM; in experiment [3], > 100 µM (inactive); in experiment [4], > 100 µM (inactive); in [5] it was > 100 µM (inactive); in experiment [6] it was > 100 µM (inactive); in experiment [7], > 100 µM (inactive). Moreover, the GI50 was > 100 µM (inactive) in [8]; > 100 µM (inactive) in [20]; 71 µM (inactive) in experiment [9]; > 100 µM (inactive) in [10]; > 100 µM (inactive) in experiment [11]; 35.2 µM (inactive) in [12]. Besides, the GI50 in [13], in experiment [14], in [15], in experiment [16], in experiment [17] and in experiment [18] was > 100 µM (inactive) in each case. In [19], the GI50 was > 100 µM (inactive).

The values are drawn from ChEMBL document CHEMBL1201862, “PubChem BioAssay data set” (2004).
